In patent US11180462B2, “Microbiocidal oxadiazole derivatives” (SYNGENTA PARTICIPATIONS AG, priority 2015, dated 2021):

How the values were obtained:
[1] = test system: Puccinia recondita f. Sp. Tritici; test: Fungicidal activity against Puccinia recondita f. sp. tritici / wheat / leaf disc preventative (brown rust); format: in vivo; conditions: foliar, 200 ppm in the applied formulation, wheat leaf segments, preventative, compared to untreated control leaf disks, read-out: disease control
Procedure: Leaf disks or leaf segments of various plant species are cut from plants grown in a greenhouse. The cut leaf disks or segments are placed in multiwell plates (24-well format) onto water agar. The leaf disks are sprayed with a test solution before (preventative) or after (curative) inoculation. Compounds to be tested are prepared as DMSO solutions (max. 10 mg/ml) which are diluted to the appropriate concentration with 0.025% Tween20 just before spraying. The inoculated leaf disks or segments are incubated under defined conditions (temperature, relative humidity, light, etc.) according to the respective test system. A single evaluation of disease level is carried out 3 to 14 days after inoculation, depending on the pathosystem. Percent disease control relative to the untreated check leaf disks or segments is then calculated.
Fungicidal Activity Against Puccinia recondita f. Sp. Tritici/Wheat/Leaf Disc Preventative (Brown Rust)
Wheat leaf segments cv. Kanzler were placed on agar in multiwell plates (24-well format) and sprayed with the formulated test compound diluted in water. The leaf disks were inoculated with a spore suspension of the fungus 1 day after application. The inoculated leaf segments were incubated at 19° C. and 75% relative humidity (rh) under a light regime of 12 hours light/12 hours darkness in a climate cabinet and the activity of a compound was assessed as percent disease control compared to untreated when an appropriate level of disease damage appears in untreated check leaf segments (7 to 9 days after application).
The following compounds at 200 ppm in the applied formulation give at least 80% disease control in this test when compared to untreated control leaf disks under the same conditions, which show extensive disease development.

[2] = test system: Glomerella lagenarium (Colletotrichum lagenarium); test: Fungicidal activity against Glomerella lagenarium (Colletotrichum lagenarium) liquid culture / cucumber / preventative (anthracnose); format: cell-based; conditions: Colletotrichum orbiculare; 20 ppm in the applied formulation; liquid culture (PDB), growth inhibition measured photometrically after 3 to 4 days; compared to untreated control; read-out: disease control
Method in brief: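 Percent activity against the untreated check was derived from photometric growth measurements made 2 to 7 days after conidia in potato dextrose broth were combined with compound at 20 ppm. Cultures were kept dark at 24 °C and 96% humidity.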

SMILES	pest or weed control at 200 ppm [1] [%]	inhibition of growth at 20 ppm [2] [%]
O=C(c1cc2c(cc1Br)OCO2)N(Cc1ccc(-c2noc(C(F)(F)F)n2)cc1)C1CC1 [Compound 1.133, 6-bromo-N-cyclopropyl-N-[[4-[5-(trifluoromethyl)-1,2,4-oxadiazol-3-yl]phenyl]methyl]-1,3-benzodioxole-5-carboxamide]	≥ 80	≥ 80
O=C(c1ccc(Cl)cc1)N(Cc1ccc(-c2noc(C(F)(F)F)n2)cc1)C1CC1 [Compound 1.142, 4-chloro-N-cyclopropyl-N-[[4-[5-(trifluoromethyl)-1,2,4-oxadiazol-3-yl]phenyl]methyl]-benzamide]	≥ 80	≥ 80
C#CCN(Cc1ccc(-c2noc(C(F)(F)F)n2)cc1)C(=O)CC1CCCC1 [Compound 1.152, 2-cyclopentyl-N-prop-2-ynyl-N-[[4-[5-(trifluoromethyl)-1,2,4-oxadiazol-3-yl]phenyl]methyl]-acetamide]	≥ 80	≥ 80
C#CCN(Cc1ccc(-c2noc(C(F)(F)F)n2)cc1)C(=O)c1cc(Cl)ccc1O [Compound 1.184, 5-chloro-2-hydroxy-N-prop-2-ynyl-N-[[4-(5-(trifluoromethyl)-1,2,4-oxadiazol-3-yl]phenyl]methyl]-benzamide]	≥ 80	≥ 80
C#CCCC(=O)N(Cc1ccc(-c2noc(C(F)(F)F)n2)cc1)CC1CC1 [Compound 1.205, N-(cyclopropylmethyl)-N-[[4-[5-(trifluoromethyl)-1,2,4-oxadiazol-3-yl]phenyl]methyl]pent-4-ynamide]	≥ 80	≥ 80
O=C(Cc1cccnc1)N(Cc1ccc(-c2noc(C(F)(F)F)n2)cc1)CC1CC1 [Compound 1.214, N-(cyclopropylmethyl)-2-(3-pyridyl)-N-[[4-[5-(trifluoromethyl)-1,2,4-oxadiazol-3-yl]phenyl]methyl]-acetamide]	≥ 80	≥ 80
CC(C)(CCl)C(=O)N(Cc1ccc(-c2noc(C(F)(F)F)n2)cc1)CC1CC1 [Compound 1.219, 3-chloro-N-(cyclopropylmethyl)-2,2-dimethyl-N-[[4-[5-(trifluoromethyl)-1,2,4-oxadiazol-3-yl]phenyl]methyl]-propanamide]	≥ 80	≥ 80
O=C(c1ccccc1)N(Cc1ccc(-c2noc(C(F)(F)F)n2)cc1)CC1CC1 [Compound 1.247, N-(cyclopropylmethyl)-N-[[4-[5-(trifluoromethyl)-1,2,4-oxadiazol-3-yl]phenyl]methyl]-benzamide]	≥ 80	≥ 80
CC=CC(=O)N(OC)C(C)c1ccc(-c2noc(C(F)(F)F)n2)cc1 (stereo not drawn) [Compound 1.250, N-methoxy-N-[1-[4-[5-(trifluoromethyl)-1,2,4-oxadiazol-3-yl]phenyl]ethyl]but-2-enamide]	≥ 80	≥ 80
CON(C(=O)C1CC1(F)F)C(C)c1ccc(-c2noc(C(F)(F)F)n2)cc1 (stereo not drawn) [Compound 1.251, 2,2-difluoro-N-methoxy-N-[1-[4-[5-(trifluoromethyl)-1,2,4-oxadiazol-3-yl]phenyl]ethyl]-cyclopropane-carboxamide]	≥ 80	≥ 80
CON(C(=O)C=C(F)CCl)C(C)c1ccc(-c2noc(C(F)(F)F)n2)cc1 (stereo not drawn) [Compound 1.252, 4-chloro-3-fluoro-N-methoxy-N-[1-[4-[5-(trifluoromethyl)-1,2,4-oxadiazol-3-yl]phenyl]ethyl]but-2-enamide]	≥ 80	≥ 80
CON(C(=O)C1=CCCC1)C(C)c1ccc(-c2noc(C(F)(F)F)n2)cc1 (stereo not drawn) [Compound 1.258, N-methoxy-N-[1-[4-[5-(trifluoromethyl)-1,2,4-oxadiazol-3-yl]phenyl]ethyl]-cyclopentene-1-carboxamide]	≥ 80	≥ 80
CCCON(Cc1ccc(-c2noc(C(F)(F)F)n2)cc1)C(=O)C1CCCCO1 (stereo not drawn) [Compound 1.283, N-propoxy-N-[[4-[5-(trifluoromethyl)-1,2,4-oxadiazol-3-yl]phenyl]methyl]-tetrahydropyran-2-carboxamide]	≥ 80	≥ 80
CCCON(Cc1ccc(-c2noc(C(F)(F)F)n2)cc1)C(=O)COC [Compound 1.287, 2-methoxy-N-propoxy-N-[[4-[5-(trifluoromethyl)-1,2,4-oxadiazol-3-yl]phenyl]methyl]-acetamide]	≥ 80	≥ 80
CCCON(Cc1ccc(-c2noc(C(F)(F)F)n2)cc1)C(=O)COCCOC [Compound 1.298, 2-(2-methoxyethoxy)-N-propoxy-N-[[4-[5-(trifluoromethyl)-1,2,4-oxadiazol-3-yl]phenyl]methyl]-acetamide]	≥ 80	≥ 80
C#CC(=O)N(Cc1ccc(-c2noc(C(F)(F)F)n2)cc1)OCCC [Compound 1.305, N-propoxy-N-[[4-[5-(trifiuoromethyl)-1,2,4-oxadiazol-3-yl]phenyl]methyl]-prop-2-ynamide]	≥ 80	≥ 80
CCCON(Cc1ccc(-c2noc(C(F)(F)F)n2)cc1)C(=O)COC(C)=O [Compound 1.306, [2-oxo-2-[propoxy-[[4-[5-(trifluoromethyl)-1,2,4-oxadiazol-3-yl]phenyl]methyl]-amino]ethyl] acetate]	≥ 80	≥ 80
CCCON(Cc1ccc(-c2noc(C(F)(F)F)n2)cc1)C(=O)C1(C#N)CC1 [Compound 1.313, 1-cyano-N-propoxy-N-[[4-[5-(trifluoromethyl)-1,2,4-oxadiazol-3-yl]phenyl]methyl]-cyclopropane-carboxamide]	≥ 80	≥ 80
CCCON(Cc1ccc(-c2noc(C(F)(F)F)n2)cc1)C(C)=O [Compound 1.320, N-propoxy-N-[[4-[5-(trifluoromethyl)-1,2,4-oxadiazol-3-yl]phenyl]methyl]-acetamide]	≥ 80	≥ 80
COCCN(Cc1ccc(-c2noc(C(F)(F)F)n2)cc1)C(=O)C=CC(F)(F)F [Compound 1.338, 4,4,4-trifluoro-N-(2-methoxyethyl)-N-[[4-[5-(trifluoromethyl)-1,2,4-oxadiazol-3-yl]phenyl]methyl]but-2-enamide]	≥ 80	≥ 80
COCCN(Cc1ccc(-c2noc(C(F)(F)F)n2)cc1)C(=O)C=CC(C)=O [Compound 1.352, N-(2-methoxyethyl)-4-oxo-N-[[4-[5-(trifluoromethyl)-1,2,4-oxadiazol-3-yl]phenyl]methyl]-pent-2-enamide]	≥ 80	≥ 80
CC#CC(=O)N(Cc1ccc(-c2noc(C(F)(F)F)n2)cc1)C(C)CC (stereo not drawn) [Compound 1.367, N-sec-butyl-N-[[4-[5-(trifluoromethyl)-1,2,4-oxadiazol-3-yl]phenyl]methyl]-but-2-ynamide]	≥ 80	≥ 80
CCC(C)N(Cc1ccc(-c2noc(C(F)(F)F)n2)cc1)C(=O)C1CCCC1 (stereo not drawn) [Compound 1.376, N-sec-butyl-N-[[4-[5-(trifluoromethyl)-1,2,4-oxadiazol-3-yl]phenyl]methyl]-cyclopentane-carboxamide]	≥ 80	≥ 80
CCC(C)N(Cc1ccc(-c2noc(C(F)(F)F)n2)cc1)C(=O)c1ccoc1 (stereo not drawn) [Compound 1.405, N-sec-butyl-N-[[4-[5-(trifluoromethyl)-1,2,4-oxadiazol-3-yl]phenyl]methyl]-furan-3-carboxamide]	≥ 80	≥ 80
CC#CC(=O)N(Cc1ccc(-c2noc(C(F)(F)F)n2)cc1)CC1CCCO1 (stereo not drawn) [Compound 1.410, N-(tetrahydrofuran-2-ylmethyl)-N-[[4-[5-(trifluoromethyl)-1,2,4-oxadiazol-3-yl]phenyl]methyl]-2-ynamide]	≥ 80	≥ 80
CC=CC(=O)N(Cc1ccc(-c2noc(C(F)(F)F)n2)cc1)CC1CCCO1 (stereo not drawn) [Compound 1.413, N-(tetrahydrofuran-2-ylmethyl)-N-[[4-[5-(trifluoromethyl)-1,2,4-oxadiazol-3-yl]phenyl]methyl]but-2-enamide]	≥ 80	≥ 80
O=C(C1CC1(F)F)N(Cc1ccc(-c2noc(C(F)(F)F)n2)cc1)CC1CCCO1 (stereo not drawn) [Compound 1.414, 2,2-difluoro-N-(tetrahydrofuran-2-ylmethyl)-N-[[4-[5-(trifluoromethyl)-1,2,4-oxadiazol-3-yl]phenyl]methyl]-cyclopropane-carboxamide]	≥ 80	≥ 80
